Article PMC10204490, “Incubation Time Influences Organic Anion Transporter 1 Kinetics and Renal Clearance Predictions” (Journal of Xenobiotics, 2023)

How the values were obtained:
[1] = tested on: OAT1; conditions: cited from earlier work
[2] = target: T1, OAT1 (Homo sapiens, UniProt Q4U2R8); experiment: Inhibition of [3H]PAH uptake into CHO-OAT1 cells (IC50 determination); conditions: IC50 for inhibition of [3H]PAH uptake, [3H]PAH 20 nM, mean ± SEM, n=4
T1 sequence (Q4U2R8 1-563): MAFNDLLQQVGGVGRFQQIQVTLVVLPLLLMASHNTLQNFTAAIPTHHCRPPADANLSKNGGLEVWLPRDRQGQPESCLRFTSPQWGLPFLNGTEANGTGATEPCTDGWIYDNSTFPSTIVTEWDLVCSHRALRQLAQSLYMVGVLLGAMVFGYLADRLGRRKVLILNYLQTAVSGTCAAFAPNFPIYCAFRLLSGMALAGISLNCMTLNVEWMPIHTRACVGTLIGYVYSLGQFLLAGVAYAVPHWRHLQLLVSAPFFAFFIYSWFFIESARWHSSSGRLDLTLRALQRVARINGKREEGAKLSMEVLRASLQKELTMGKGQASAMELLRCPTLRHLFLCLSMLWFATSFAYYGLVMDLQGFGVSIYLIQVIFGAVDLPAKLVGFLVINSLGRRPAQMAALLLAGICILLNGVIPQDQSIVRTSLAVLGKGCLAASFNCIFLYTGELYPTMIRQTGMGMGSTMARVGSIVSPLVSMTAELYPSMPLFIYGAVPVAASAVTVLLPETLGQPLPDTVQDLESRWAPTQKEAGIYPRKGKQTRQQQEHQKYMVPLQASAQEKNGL
Method: All cells were grown to confluence in 24-well flat bottom plates for transport experiments.
Transport experiments involved aspirating the media, rinsing the cells quickly once with WB (0.4 mL), and then adding the transport solution (0.4 mL) to the wells for an amount of time as indicated in the figure legends. Uptake was stopped by aspirating the transport buffer and rinsing the wells three times with ice-cold WB (0.4 mL). The cells were lysed in 0.5 N NaOH/1% sodium dodecyl sulfate (0.4 mL) for 30 min on an orbital shaker and the lysates neutralized with 1 N HCl (0.2 mL). […] Several wells not used for transport were used for determining the number of cells per well with a hemocytometer.
As above, transport inhibition experiments involved aspirating the media, rinsing the cells quickly once with WB (0.4 mL), and then adding the transport solution (0.4 mL) to the wells for an amount of time as indicated in the figure legends.
[I] is the concentration of inhibitor in the transport solution. […] Japp is the apparent maximal transport rate, and C has the same meaning as noted above.

[3] = parameters: method as in earlier work; conditions: cited from earlier work
[4] = parameters: method as in earlier work; conditions: measured; cited from earlier work
[5] = cited from earlier work
[6] = target: T1, OAT1; experiment: Telmisartan pre-incubation and washout recovery of [3H]PAH uptake in CHO-OAT1 cells

## COc1ccc2c(c1)c(CC(=O)O)c(C)n2C(=O)c1ccc(Cl)cc1 [Indomethacin, indomethacin]
[1]
  Inhibition mechanism at OAT1: competitive

## COc1ccc2[nH]c([S+]([O-])Cc3ncc(C)c(OC)c3C)nc2c1 (stereo not shown) [Omeprazole, omeprazole]
[2]; 15 sec incubation
  IC50: 9.7 ± 0.8 µM
[2]; 10 min incubation
  IC50: 9.2 ± 0.8 µM
[1]
  Inhibition mechanism at OAT1: mixed-type

## Nc1ccc(C(=O)NCC(=O)O)cc1 [PAH, Para-aminohippurate]
[3]
  LogP: -2.2
  pKa: 3.83
[4]
  Fraction unbound in plasma (fup): 0.83
[5]; 10 mg ∙ kg-1 intravenous dose
  Clinically-observed plasma clearance (CLi.v.): 40.6 L/h
[5]
  Observed Vss: 0.23 L/kg
  Percentage of the dose excreted into the urine as acetyl-PAH: ~ 10%
[5]; human subjects, probenecid 1 g oral dose
  Reduction in plasma clearance of PAH by co-administered probenecid: 1.8 fold

## CCCc1nc2c(C)cc(-c3nc4ccccc4n3C)cc2n1Cc1ccc(-c2ccccc2C(=O)O)cc1 [Telmisartan, telmisartan]
[2]; 15 sec incubation
  IC50: 0.4 ± 0.07 µM
[2]; 10 min incubation
  IC50: 0.06 ± 0.02 µM
[6]; 30 min pre-treatment with telmisartan 0.5 µM, washout in WB with 10% FBS, single experiment
  Reversibility of OAT1 inhibition after washout: reversible, albeit slowly
[6]; telmisartan 10, 50, 100 or 200 nM, pre-incubation 1, 5, 10 or 30 min, [3H]PAH uptake 15 s
  Effect of pre-incubation time on OAT1 transport activity: decreased with increasing pre-incubation times
[1]
  Inhibition mechanism at OAT1: non-competitive
